Test results published in patent publication US20220144839A1, “INDOLE AHR INHIBITORS AND USES THEREOF” (Ikena Oncology, Inc., priority 2018, published 2022).
pIC50: −log10 of the molar value.

These compounds were tested against T1, AHR (UniProt P35869) (assay: DRE-Luciferase Reporter Assay (Alternate Method), Example 1B). Conditions: concentration which inhibits half of the luciferase activity induced by AHR activating ligand; DRE-luciferase reporter cell line.
T1 sequence (P35869 1-848): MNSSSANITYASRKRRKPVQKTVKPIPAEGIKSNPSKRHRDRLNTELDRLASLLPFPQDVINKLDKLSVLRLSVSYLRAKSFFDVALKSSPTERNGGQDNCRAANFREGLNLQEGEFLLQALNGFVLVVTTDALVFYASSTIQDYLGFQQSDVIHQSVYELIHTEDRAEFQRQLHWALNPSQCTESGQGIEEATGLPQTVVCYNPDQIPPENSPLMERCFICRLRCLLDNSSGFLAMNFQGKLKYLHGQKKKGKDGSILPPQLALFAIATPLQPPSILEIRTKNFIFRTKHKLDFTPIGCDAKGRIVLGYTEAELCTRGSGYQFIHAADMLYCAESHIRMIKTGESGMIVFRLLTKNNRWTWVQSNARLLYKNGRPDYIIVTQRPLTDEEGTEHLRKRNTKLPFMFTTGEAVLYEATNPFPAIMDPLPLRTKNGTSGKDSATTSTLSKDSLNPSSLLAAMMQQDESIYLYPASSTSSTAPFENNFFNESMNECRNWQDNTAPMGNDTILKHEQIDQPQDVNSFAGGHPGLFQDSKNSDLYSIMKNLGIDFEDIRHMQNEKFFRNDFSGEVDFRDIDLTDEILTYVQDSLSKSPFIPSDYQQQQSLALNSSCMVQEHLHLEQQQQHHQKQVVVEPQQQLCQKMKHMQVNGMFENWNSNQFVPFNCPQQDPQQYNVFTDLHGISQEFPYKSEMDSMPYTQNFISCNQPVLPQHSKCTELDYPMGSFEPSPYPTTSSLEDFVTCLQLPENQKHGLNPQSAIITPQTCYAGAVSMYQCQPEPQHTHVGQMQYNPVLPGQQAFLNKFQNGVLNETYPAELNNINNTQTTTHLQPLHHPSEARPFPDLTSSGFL
Format: cell-based
How it was run: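 Murine (Hepa1-6, Hepa-1c1c7) or human (HepG2) cells carrying a stable or transient DRE-luciferase reporter, stimulated with an AHR agonist (e.g. TCDD, kynurenine, ITE, BNF, FICZ) plus compound at plating or after overnight culture at 37 °C. Luciferase read after 4, 15 or 24 h; IC50 as concentration halving agonist-only signal relative to no-ligand baseline.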

CC(C)c1cnn2c(N[C@H]3CCc4c(ccnc4N)C3)nc(-c3cncc(F)c3)nc12 [Compound I-63b, (6S)—N6-[2-(5-fluoro-3-pyridyl)-8-isopropyl-pyrazolo[1,5-a][1,3,5]triazin-4-yl]-5,6,7,8-tetrahydroisoquinoline-1,6-diamine] and CC(C)c1cnn2c(N[C@@H]3CCc4c(cc[nH]c4=O)C3)nc(-c3cncc(F)c3)nc12 [Compound I-66a, (6R)-6-[[2-(5-Fluoro-3-pyridyl)-8-isopropyl-pyrazolo[1,5-a][1,3,5]triazin-4-yl]amino]-5,6,7,8-tetrahydro-2H-isoquinolin-1-one] cannot be ordered by pIC50: less than 5.82 for the first, less than 5.82 for the second.

COC[C@H](C)c1cnn2c(N[C@@H]3CCc4[nH]c5ccccc5c4C3)nc(-c3cncc(F)c3)nc12 [Compound I-64a, (3R)—N-[2-(5-Fluoro-3-pyridyl)-8-[(1R)-2-methoxy-1-methyl-ethyl]pyrazolo[1,5-a][1,3,5]triazin-4-yl]-2,3,4,9-tetrahydro-1H-carbazol-3-amine] and COC[C@@H](C)c1cnn2c(N[C@@H]3CCc4[nH]c5ccccc5c4C3)nc(-c3cncc(F)c3)nc12 [Compound I-64b, (3R)—N-[2-(5-fluoro-3-pyridyl)-8-[(1S)-2-methoxy-1-methyl-ethyl]pyrazolo[1,5-a][1,3,5]triazin-4-yl]-2,3,4,9-tetrahydro-1H-carbazol-3-amine] cannot be ordered by pIC50: greater than 6.30 for the first, greater than 6.30 for the second.

COCC[C@H](C)c1cnn2c(N[C@@H]3CCc4[nH]c5ccccc5c4C3)nc(-c3cncc(F)c3)nc12 [Compound I-65a, (3R)—N-[2-(5-Fluoro-3-pyridyl)-8-[(1S)-3-methoxy-1-methyl-propyl]pyrazolo[1,5-a][1,3,5]triazin-4-yl]-2,3,4,9-tetrahydro-1H-carbazol-3-amine] and COCC[C@@H](C)c1cnn2c(N[C@@H]3CCc4[nH]c5ccccc5c4C3)nc(-c3cncc(F)c3)nc12 [Compound I-65b, (3R)—N-[2-(5-fluoro-3-pyridyl)-8-[(1R)-3-methoxy-1-methyl-propyl]pyrazolo[1,5-a][1,3,5]triazin-4-yl]-2,3,4,9-tetrahydro-1H-carbazol-3-amine] cannot be ordered by pIC50: greater than 6.30 for the first, greater than 6.30 for the second.

CC(C)c1cnn2c(N[C@H]3CCc4c(cc[nH]c4=O)C3)nc(-c3cncc(F)c3)nc12 [Compound I-66b, (6S)-6-[[2-(5-fluoro-3-pyridyl)-8-isopropyl-pyrazolo[1,5-a][1,3,5]triazin-4-yl]amino]-5,6,7,8-tetrahydro-2H-isoquinolin-1-one] gave a pIC50 of less than 5.82.
